Reference: US9560851B2, “Pesticidal mixtures including spiroheterocyclic pyrrolidine diones” (Syngenta Participations AG, priority 2012, dated 2017)

Key:
[1] = test system: Tetranychus urticae (Two-Spotted Spider Mite); assay: Tetranychus urticae feeding/contact activity, preventive (bean leaf discs); assay type: in vivo; conditions: mobile stages
Source text: Tetranychus urticae (Two-Spotted Spider Mite): feeding/contact activity, preventive
Bean leaf discs on agar in 24-well microtiter plates were sprayed with the DMSO test solutions of certain Mixtures (as provided by Table 45). After drying, the leaf discs were infested with mite populations of mixed ages. 8 days later, discs were checked for mortality against mobile stages.

[2] = test system: Myzus persicae (Green Peach Aphid); assay: Myzus persicae feeding/residual contact activity, preventive (sunflower leaf discs); assay type: in vivo; conditions: Acetamiprid alone, 6 DAT
Procedure: Myzus persicae (Green Peach Aphid):
feeding/residual contact activity, preventive
Sunflower leaf discs were placed on agar in a 24-well microtiter plate and sprayed with the DMSO test solutions of Mixtures (as provided by Table 45). After drying, the leaf discs were infested with an aphid population of mixed ages. After an incubation period of 6 DAT (days after treatment), samples were checked for mortality.

## C/C(=N\C#N)N(C)Cc1ccc(Cl)nc1 [Acetamiprid]
[1]; Table 47, Acetamiprid alone, 50 PPM AI
  AVERAGE DEAD IN % AFTER 8 DAYS: 0%
[1]; Table 47, Acetamiprid alone, 100 PPM AI
  AVERAGE DEAD IN % AFTER 8 DAYS: 0%
[1]; Table 47, Acetamiprid alone, 200 PPM AI
  AVERAGE DEAD IN % AFTER 8 DAYS: 0%
[1]; Table 47, Acetamiprid alone, 400 PPM AI
  AVERAGE DEAD IN % AFTER 8 DAYS: 0%
[1]; Table 47, Acetamiprid alone, 800 PPM AI
  AVERAGE DEAD IN % AFTER 8 DAYS: 0%
[1]; Table 48, Acetamiprid alone, 50 PPM AI
  AVERAGE DEAD IN % AFTER 8 DAYS: 0%
[1]; Table 48, Acetamiprid alone, 100 PPM AI
  AVERAGE DEAD IN % AFTER 8 DAYS: 0%
[1]; Table 48, Acetamiprid alone, 200 PPM AI
  AVERAGE DEAD IN % AFTER 8 DAYS: 0%
[1]; Table 48, Acetamiprid alone, 400 PPM AI
  AVERAGE DEAD IN % AFTER 8 DAYS: 0%
[1]; Table 48, Acetamiprid alone, 800 PPM AI
  AVERAGE DEAD IN % AFTER 8 DAYS: 0%
[2]; 0.1 PPM AI
  AVERAGE DEAD IN % AFTER 6 DAYS: 0%
[2]; 0.2 PPM AI
  AVERAGE DEAD IN % AFTER 6 DAYS: 0%
[2]; 0.4 PPM AI
  AVERAGE DEAD IN % AFTER 6 DAYS: 0%
[2]; 0.8 PPM AI
  AVERAGE DEAD IN % AFTER 6 DAYS: 0%
[2]; 1.6 PPM AI
  AVERAGE DEAD IN % AFTER 6 DAYS: 27%
